# Where a name gives a salt, the structure may show the parent alone.
# How the values were obtained:
# [1] = tested on: neuronal serotonin uptake; test: Antidepressive activity / inhibition of the neuronal serotonin uptake in animal experiments; format: in vivo
# Description: The compound of formula I and its pharmaceutically acceptable acid addition salts, are therefore useful, for example, for the treatment of depressions of endogenous or exogenous origin. More specifically, they are useful as antidepressants.
# [2] = Solubility; format: physicochemical; conditions: free base
# [3] = Anticholinergic side-effects; conditions: for example mouth dryness, constipation, tachycardia and/or accommodation disorders
# [4] = tested on: serotonin uptake in the synaptosomes of the forebrain of rats; test: Inhibition of the serotonin uptake ex vivo; format: in vivo, rat; conditions: for ED50: Rattus norvegicus, ip, injected intraperitoneally, serotonin uptake measured after 1 hour, rats
# Procedure: (§1) The uptake of serotonin in the synaptosomes of the forebrain of rats was tested according to J. Pharmacol. exp.
# 2. Inhibition of the serotonin uptake ex vivo
# An analogous experimental procedure to that given under 1 was utilized. The test substances were, however, injected intraperitoneally; the serotonin uptake was measured after 1 hour. Untreated rats were used as the controls.
# [5] = tested on: serotonin uptake in blood platelets of the rat; test: Inhibition of the serotonin uptake in vivo (blood platelets); conditions: ip; for inhibition at 5 mg/kg: Rattus norvegicus, Platelet, 5.0 mg/kg intraperitoneally twice daily over 4 days, 12 hours after last administration, read-out: Inhibition in % of the control; for Serotonin in mmol/mg. of protein: 5 mg/kg
# Procedure: 5. Inhibition of the serotonin uptake in vivo
# Rats were given twice daily over a period of 4 days an intraperitoneal injection of 5.0 mg. of test substance per kg. and 12 hours after the last administration the rats were killed. Serotonin was determined spectrofluorimetrically as described in J. Pharmacol. exp.
# [6] = tested on: serotonin uptake in the synaptosomes of the forebrain of rats; test: Inhibition of the serotonin uptake in vitro (synaptosomes of the forebrain of rats); format: biochemical, rat; conditions: for IC50: synaptosomes of the forebrain of rats, read-out: ED50 (inhibition of 50%) of serotonin uptake in vitro
# Procedure: 1. Inhibition of the serotonin uptake in vitro
# as §1
# [7] = tested on: serotonin re-uptake ("membrane pump"); test: Inhibition of the serotonin re-uptake in vivo (action of the "membrane pump"); parameters: species or system rat; conditions: for ED50: Rattus norvegicus, "membrane pump", Biochem. Pharmacol. 20, 707, 1971
# [8] = tested on: serotonin uptake in blood platelets of the rat; test: Inhibition of the serotonin uptake in vitro (blood platelets); format: cell-based
# Procedure: 4. Inhibition of the serotonin uptake in vitro
# 0.5 Ml. of blood plasma was treated with different concentrations of test substance in 50 μl of physiological sodium chloride solution. After incubating at 37° C. for 5 minutes, serotonin (C^14; 0.1 μM) was added and the mixture was incubated at 37° C. for an additional 5 minutes. The serotonin concentration was determined by means of a C^14 measuring apparatus. A control experiment in which no test substance is used was also carried out.
SMILES,antidepressive activity [1],inhibition of the neuronal serotonin uptake [1],"solubility in organic solvents ([2]; dimethylsulfoxide, dimethylformamide, chlorinated hydrocarbons (chloroform, methylene chloride), alkanols (methanol, ethanol), ether and benzene)",solubility in water ([2]; water),anticholinergic side-effects [3],ED50 [4] [mg/kg],inhibition at 5 mg/kg [5] [%],Serotonin in mmol/mg. of protein [5],IC50 [6] [µM],ED50 [7] [mg/kg],"as active as substance B in times smaller doses ([4]; versus known substance B, ex vivo) [times]","as active as substance C in times smaller doses ([4]; versus known substance C, ex vivo) [times]",times greater activity than substance B ([8]; versus known substance B) [times],times greater activity than substance C ([8]; versus known substance C) [times],"times greater activity than substance B ([6]; versus known substance B, synaptosomes) [times]","times greater activity than substance C ([6]; versus known substance C, synaptosomes) [times]","as active as substance B in times smaller doses ([7]; versus known substance B, in vivo re-uptake) [times]","as active as substance C in times smaller doses ([7]; versus known substance C, in vivo re-uptake) [times]"
"CN(C)CCCN1c2ccccc2CCc2ccc(C#N)cc21 [3-cyano-N-(N,N-dimethylaminopropyl)-iminodibenzyl]",strong antidepressive activity,extraordinarily strong inhibition of the neuronal serotonin uptake,relatively good solubility,soluble in water with relative difficulty,confined to a minimum,–,–,–,–,–,–,–,–,–,–,–,–,–
"CN(C)CCCN1c2ccccc2CCc2ccccc21 [Substance B, N-(N,N-Dimethylaminopropyl)-iminodibenzyl hydrochloride, reference compound]",–,–,–,–,–,19,14,9.72 ± 2.12 mmol/mg. of protein,0.078,12.8,–,–,–,–,–,–,–,–
"CN(C)CCCN1c2ccccc2CCc2ccc(C#N)cc21 [Substance A, 3-Cyano-N-(N,N-dimethylaminopropyl)-iminodibenzyl hydrochloride]",–,–,–,–,–,0.9,61,4.09 ± 1.30 mmol/mg. of protein,0.0015,0.7,21,2.4,130,20,52,4.2,18,9
